Structures are written as SMILES. Counter-ions that a name gives are not always drawn.

In this test the target is T1, N-terminal 6His-tagged ROCK2 catalytic domain 11-552 (Homo sapiens, UniProt O75116).
T1 construct: N-terminal 6His-tagged ROCK2 catalytic domain 11-552; 6His (N); purchased Dundee University, UK; host or cells: baculovirus expression system
T1 sequence (O75116 11-552): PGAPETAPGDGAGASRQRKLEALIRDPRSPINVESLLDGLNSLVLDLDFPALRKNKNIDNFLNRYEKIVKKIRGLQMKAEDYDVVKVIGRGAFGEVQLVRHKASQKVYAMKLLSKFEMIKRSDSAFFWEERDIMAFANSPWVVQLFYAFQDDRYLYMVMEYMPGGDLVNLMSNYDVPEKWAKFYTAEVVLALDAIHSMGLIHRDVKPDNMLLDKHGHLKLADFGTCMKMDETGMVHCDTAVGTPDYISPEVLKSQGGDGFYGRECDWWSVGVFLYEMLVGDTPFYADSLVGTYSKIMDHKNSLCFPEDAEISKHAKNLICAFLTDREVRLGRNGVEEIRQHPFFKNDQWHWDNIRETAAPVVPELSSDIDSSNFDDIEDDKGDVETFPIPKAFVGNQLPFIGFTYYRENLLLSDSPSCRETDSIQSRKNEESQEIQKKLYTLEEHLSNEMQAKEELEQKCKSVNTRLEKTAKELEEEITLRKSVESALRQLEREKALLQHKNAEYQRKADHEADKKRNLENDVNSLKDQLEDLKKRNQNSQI
Nature of the test: ROCK2 binding activity: ROCK2 inhibition, ADP-Glo Kinase Assay. Format: biochemical. Particulars: 1.25 nM ROCK2, 100 μM long S6 peptide, 20 μM ATP; 1 hour pre-incubation; read-out: ADP-Glo kinase activity assay ROCK2 Category. Summed up:
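1.25 nM baculovirus-expressed ROCK2 pre-incubated 1 h with compound (1% DMSO), then 100 μM long S6 peptide and 20 μM ATP added for 1 h; 50 mM HEPES pH 7.5, 10 mM Mg acetate, 1 mM DTT. ADP-Glo luminescence; IC50 from four-parameter logistic fit.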
On the technique in general: ADP-Glo first removes unused ATP, then detects ADP through luciferase.
`COc1cc(-c2nc(Nc3ccc4[nH]ncc4c3Cl)n(-c3ccccn3)n2)ccc1C(=O)NCC(F)(F)F` [Example 153]: the IC50 was < 300 nM.
Under `CCNC(=O)c1ccc(-c2nc(Nc3ccc4[nH]ncc4c3)n(C)n2)cc1F` [Example 326] stands < 300 nM; under `Cn1nc(-c2c[nH]c3ccncc23)nc1Nc1ccc2[nH]ncc2c1Cl` [Example 121], 3000 to 10000 nM; under `Cn1nc(C2=CCC(N)CC2)nc1Nc1ccc2[nH]ncc2c1Cl` (stereo not drawn) [Example 84], > 10000 nM.
To `CCNC(=O)c1ccc(-c2nc(Nc3ccc4[nH]ncc4c3C3CC3)n(C)n2)cc1OC` [Example 272] belongs < 300 nM.
To `COc1cc(-c2nc(Nc3ccc4[nH]ncc4c3Cl)n(C)n2)ccc1OCC(=O)N[C@H](C)C(F)(F)F` [Example 219] belongs < 300 nM.
Turning to `COc1cc(-c2nc(Nc3ccc4[nH]ncc4c3)n(C)n2)ccc1COC(=O)NC1CCNC1` (stereo not drawn) [Example 231, [4-[5-(1H-indazol-5-ylamino)-1-methyl-1,2,4-triazol-3-yl]-2-methoxy-phenyl]methyl N-pyrrolidin-3-ylcarbamate], the IC50 was < 300 nM.
To `Cn1nc(-c2ccc(CNS(C)(=O)=O)cc2)nc1Nc1ccc2[nH]ncc2c1C1CC1` [Example 385] belongs < 300 nM.
To `COc1cc(-c2nc(Nc3ccc4[nH]ncc4c3C3CC3)n(C)n2)cnc1C(=O)NC1CC1` [Example 379] belongs 300 to 3000 nM; to `CCc1c(Nc2nc(-c3ccc(C(=O)NC4CCC(F)(F)C4)cc3)nn2C)ccc2[nH]ncc12` (stereo not drawn) [Example 319], < 300 nM.
To `COc1cc(OCC(=O)NC(C)C)ccc1-c1nnc(Nc2ccc3[nH]ncc3c2)[nH]1` [Example 27] belongs 300 to 3000 nM; to `COc1cc(-c2nc(Nc3ccc4[nH]ncc4c3Cl)n(C)n2)ccc1OCC(=O)NCC(C)(C)O` [Example 207], < 300 nM.
Consider `Cn1nc(-c2ccc(C(=O)NC3CC3)c(F)c2)nc1Nc1ccc2[nH]ncc2c1C1CC1` [Example 380], for which the IC50 was < 300 nM.
To `CC(C)NC(=O)COc1cc(F)c(-c2nc(Nc3ccc4[nH]ncc4c3)n(C)n2)cc1F` [Example 416] belongs < 300 nM.
To `CC(C)NC(=O)COc1ccc(-c2nc(Nc3ccc4[nH]ncc4c3Cl)n(C)n2)cc1C(F)(F)F` [Example 348] belongs < 300 nM; to `COc1cc(-c2nc(Nc3cc4cn[nH]c4cc3F)n(C)n2)ccc1C(=O)NC(C)(C)C` [Example 432], 3000 to 10000 nM; to `CC(C)NCCOc1ccc(-c2n[nH]c(Nc3ccc4[nH]ncc4c3)n2)cc1` [Example 230, N-[5-[4-[2-(isopropylamino)ethoxy]phenyl]-4H-1,2,4-triazol-3-yl]-1H-indazol-5-amine], 300 to 3000 nM.
Consider `COc1cc(-c2nc(Nc3ccc4[nH]ncc4c3Cl)n(C)n2)ccc1OCC(=O)NC1CCCC1` [Example 217], for which the IC50 is < 300 nM.
To `O=C(COc1ccc(-c2nnc(Nc3ccc4[nH]ncc4c3)[nH]2)cc1)NC1CCOC1` (stereo not drawn) [Example 159] belongs 300 to 3000 nM; to `CC(C)NC(=O)CCn1ccc(-c2nnc(Nc3ccc4[nH]ncc4c3)[nH]2)cc1=O` [Example 33], > 10000 nM; to `COc1cc(-c2nc(Nc3ccc4[nH]ncc4c3)n(C)n2)ccc1OCC(=O)NC1CNC1` [Example 45], < 300 nM.
To `CNC(=O)c1ccc(-c2nc(Nc3ccc4[nH]ncc4c3Cl)n(C)n2)cc1` [Example 62] belongs < 300 nM.
To `CCNC(=O)c1ccc(-c2nc(Nc3ccc4[nH]ncc4c3)n(C)n2)cc1Cl` [Example 325] belongs 300 to 3000 nM; to `Oc1ccc(-c2nnc(Nc3ccc4[nH]ncc4c3)[nH]2)cc1` [Example 39], 300 to 3000 nM; to `CCc1c(Nc2nc(-c3ccc(C(=O)NCC(F)F)cc3)nn2C)ccc2[nH]ncc12` [Example 317], < 300 nM.
As to `Cn1nc(-c2ccc(C(=O)NC3(C)CC3)cc2)nc1Nc1ccc2[nH]ncc2c1Cl` [Example 258], the IC50 is < 300 nM.
Under `COc1cc(-c2nc(Nc3ccc4[nH]ncc4c3Cl)n(C)n2)ccc1C(=O)NC1CCS(=O)(=O)C1` (stereo not drawn) [Example 200] stands < 300 nM.
For `Cn1cc(NC(=O)c2ccc(-c3nc(Nc4ccc5[nH]ncc5c4C4CC4)n(C)n3)cc2)cn1` [Example 300], the IC50 is < 300 nM.
To `CC(C)NC(=O)Cn1cc(-c2nnc(Nc3ccc4[nH]ncc4c3)[nH]2)ccc1=O` [Example 16] belongs 300 to 3000 nM.
Under `COc1cc(-c2nc(Nc3ccc4[nH]ncc4c3Cl)n(C)n2)ccc1C(=O)NC#N` [Example 199] stands 300 to 3000 nM.
Under `CCNC(=O)c1cc(F)c(-c2nc(Nc3ccc4[nH]ncc4c3Cl)n(C)n2)c(F)c1` [Example 359] stands 300 to 3000 nM; under `CC(C)NC(=O)COc1ccc(-c2nc(Nc3ccc4[nH]ncc4c3Cl)n(C)n2)cc1Cl` [Example 472], < 300 nM.
`CC(C)NC(=O)c1cccc(-c2nc(Nc3ccc4[nH]ncc4c3Cl)n(C)n2)c1` [Example 270]: the IC50 was < 300 nM.
Under `CC(C)NC(=O)NCCOc1ccc(-c2nnc(Nc3ccc4[nH]ncc4c3)[nH]2)cc1` [Example 224, 1-[2-[4-[5-(1H-indazol-5-ylamino)-4H-1,2,4-triazol-3-yl]phenoxy]ethyl]-3-isopropyl-urea dihydrochloride] stands < 300 nM.
With `COc1cc(-c2nc(Nc3ccc4[nH]ncc4c3C)n(C)n2)ccc1C(=O)NCCN(C)C` [Example 329], the IC50 is 3000 to 10000 nM.
Under `COc1ccc(-c2nnc(Nc3ccc4[nH]ncc4c3)[nH]2)cc1` [Example 1, N-[5-(4-Methoxyphenyl)-4H-1,2,4-triazol-3-yl]-1H-indazol-5-amine dihydrochloride] stands 300 to 3000 nM; under `COc1cc(-c2nc(Nc3ccc4[nH]ncc4c3Cl)n(CC(C)C)n2)ccc1C(=O)NCC(F)(F)F` [Example 437], < 300 nM; under `CC(C)NC(=O)COc1ccc(-c2nnc(Nc3ccc4[nH]ncc4c3)[nH]2)cc1Cl` [Example 38], < 300 nM.
In the case of `CCN1CCc2cc(-c3nc(Nc4ccc5[nH]ncc5c4C4CC4)n(C)n3)ccc2C1C` (stereo not drawn) [Example 249, 4-cyclopropyl-N-[5-(2-ethyl-1-methyl-3,4-dihydro-1H-isoquinolin-6-yl)-2-methyl-1,2,4-triazol-3-yl]-1H-indazol-5-amine], the IC50 is 3000 to 10000 nM.
To `CCNC(=O)c1cc(F)c(-c2nc(Nc3ccc4[nH]ncc4c3)n(C)n2)c(F)c1` [Example 413] belongs < 300 nM; to `CC(C)NC(=O)COc1ccc(-c2nnc(Nc3ccc4[nH]ncc4c3)[nH]2)cc1C#N` [Example 14], < 300 nM; to `COc1cc(-c2nc(Nc3ccc4[nH]ncc4c3Cl)n(C)n2)ccc1OCC(=O)NC1CC(O)C1` (stereo not drawn) [Example 214], < 300 nM.
To `CC(C)NC(=O)COc1ccc(-c2nc(Nc3ccc4[nH]ncc4c3Cl)n(C)n2)c(F)c1` [Example 355] belongs < 300 nM; to `CCc1c(Nc2nc(-c3ccc(C(=O)NC(C)C)cc3)nn2C)ccc2[nH]ncc12` [Example 318], < 300 nM.
Turning to `COc1cc(-c2nc(Nc3ccc4[nH]ncc4c3Cl)n(C)n2)ccc1OCC(=O)NC(C)C` [Example 68], the IC50 is < 300 nM.
For the compound `CC(C)C[C@@H](CO)NC(=O)c1ccc(-c2nc(Nc3ccc4[nH]ncc4c3C3CC3)n(C)n2)cc1` [Example 309], the IC50 is < 300 nM.
To `Cn1nc(-c2ccc3c(c2)CCNC3=O)nc1Nc1ccc2[nH]ncc2c1Cl` [Example 364] belongs < 300 nM.
`CN1CCc2cc(-c3nc(Nc4ccc5[nH]ncc5c4)n(C)n3)ccc2C1=O` [Example 47]: the IC50 is < 300 nM.
Under `CCC(C)NC(=O)c1ccc(-c2nc(Nc3ccc4[nH]ncc4c3C3CC3)n(C)n2)cc1` (stereo not drawn) [Example 282] stands < 300 nM; under `COc1cc(-c2nc(Nc3ccc4[nH]ncc4c3C)n(C3CC3)n2)ccc1C(=O)NCC(F)(F)F` [Example 456], < 300 nM; under `Cc1ccc(-c2nc(Nc3ccc4[nH]ncc4c3Cl)n(C)n2)cn1` [Example 109], 3000 to 10000 nM.
Take `COc1cc(-c2nc(Nc3ccc4[nH]ncc4c3Cl)n(C)n2)ccc1C(=O)N1CCCC1` [Example 197]: the IC50 is 300 to 3000 nM.
To `COc1cc(-c2nc(Nc3ccc4[nH]ncc4c3Cl)n(C)n2)ccc1C(=O)N1CCOCC1` [Example 172] belongs 300 to 3000 nM; to `COc1cc(-c2nc(Nc3ccc4[nH]ncc4c3Cl)n(C)n2)ccc1C(=O)NC1CC1` [Example 195], < 300 nM; to `Cn1nc(-c2ccc(C(=O)Nc3ccccc3)cc2)nc1Nc1ccc2[nH]ncc2c1Cl` [Example 261], < 300 nM.
Under `Cn1nc(-c2ccc(C(=O)NCC(N)=O)cc2)nc1Nc1ccc2[nH]ncc2c1C1CC1` [Example 306] stands 300 to 3000 nM; under `COc1cc(-c2nc(Nc3ccc4[nH]ncc4c3)nn2C)ccc1OCC(=O)NC(C)C` [Example 232, 2-[4-[5-(1H-indazol-5-ylamino)-2-methyl-1,2,4-triazol-3-yl]-2-methoxy-phenoxy]-N-isopropyl-acetamide], 300 to 3000 nM.
To `Cc1cc(-c2nnc(Nc3ccc4[nH]ncc4c3)[nH]2)ccc1OCC(=O)NC(C)C` [Example 10] belongs < 300 nM.
As to `Cn1nc(C2=CCOCC2)nc1Nc1ccc2[nH]ncc2c1Cl` [Example 98], the IC50 was > 10000 nM.
To `CCn1nc(-c2ccc(C(=O)NCC(F)(F)F)c(OC)c2)nc1Nc1ccc2[nH]ncc2c1C1CC1` [Example 441] belongs < 300 nM; to `Cn1nc(-c2ccc(C(=O)NCCC(F)(F)F)cc2)nc1Nc1ccc2[nH]ncc2c1C1CC1` [Example 285], < 300 nM; to `COCc1cccc(-c2nc(Nc3ccc4[nH]ncc4c3Cl)n(C)n2)c1` [Example 113], > 10000 nM.
Under `COCCn1nc(-c2ccc(C(=O)NCC(F)(F)F)cc2)nc1Nc1ccc2[nH]ncc2c1C1CC1` [Example 438] stands < 300 nM.
